Results on two molecules are retold here after patent US20120131697A1, “GENE ENCODING AUXIN RECEPTOR PROTEIN DERIVED FROM RICE AND USE THEREOF” (REPUBLIC OF KOREA (MANAGEMENT: RURAL DEVELOPMENT …, priority 2009, published 2012).

Usually Hill coefficient stands for the slope factor of the fitted curve.

The target in one experiment is ABP57 (Oryza sativa subsp. japonica, UniProt B7ELI0). Kind of experiment: Scatchard analysis of binding between recombinant ABP57 and auxin hormone IAA. Conditions: recombinant protein. Details: species or system rice.
Experiment [1] deals with proton pump in plasma membrane. Nature of the experiment: Activation of proton pump in rice plasma membrane by ABP57 protein (fluorescence analyzer, Hill plot). Type of experiment: biochemical. The method, then: The purified protein and the proton pump in plasma membrane, which had been separated from rice, were admixed with each other, and then the activity of proton pump was measured by fluorescence analyzer.
The change in degree of activating proton pump according to concentration of the recombinant protein was measured and analyzed by Hill plot analysis. […] Further, this value was very close to the Hill coefficient of 0.97, which was obtained by previous studies for the interaction between the proton pump and natural ABP57 (FIG. 8).

With `O=C(O)Cc1c[nH]c2ccccc12` [IAA, indole-3-acetic acid], on ABP57 (FIG. 9, read-out: IAA dissociation constant), the Kd was found to be 3.6 µM. Also, the “number of binding site” value on ABP57 (corresponds to low affinity binding site of natural ABP57) was found to be 1.

B1: recombinant protein: recombinant auxin receptor protein ABP57 from rice, expressed in E. coli as MBP fusion, MBP removed (SEQ ID NO: 1) (protein, listed as Oryza sativa)
chain: MAEIVSSVVVHEAVNQIIHGLVNWNERKSSAEENMERLEMAHIRLEAALETSCKWRITDSSLLCWQKKLKRAAQECDDTLRKCRQRILEQEEAEQEVRNSSIPRRIAHATKSLVSSLFYSNIDGSCRSAVRRFEWFADGANEFLRFVEFGGTPHQYLFFDPLIRQLLAGKTLEYKLVSENKYRLFVIRPFCISENRIEARLIFDSKNASALEDDFFLCMLLQVSESVDILGIVIKCLQLFNPHFMSTAESVRNELTQLPSQDFTWVPYAESCHKKHWDNIHSITTQWFRPNPLCCKQHGQNHSCESSNLGMPSVQGVSLGPVIEVSLQCHVPVPEFREQGTIVKGKPSLKKCPHMKVDLVYTPHGSSQDLLPEIKSSVIEVINGDKQHCLHTNIALELMEEIMLPRAVDCFHENAEAKLYQMLWKSKHGGAYLQVMKATMNTRSTQRTIRGSRKAKLLQQQGHKTQHRTNAISDFLNLWSAHAPVQLQGSILDWIQKEKEAQLAPPLLRLKF
B1: the Hill coefficient in experiment [1] (degree of activating proton pump according to concentration of recombinant protein, Hill plot, FIG. 8) is listed as 0.94. The “activity of proton pump” value in experiment [1] (purified recombinant protein admixed with proton pump in plasma membrane separated from rice, FIG. 7) is on record as “increase in the activity of proton pump”.
